Results from PMC5287478, “Quantitative Affinity Determination by Fluorescence Anisotropy Measurements of Individual Nanoliter Droplets” (Analytical Chemistry, 2017).

Key:
HumRadA18 = molecular target: T1, HumRadA18 (Pyrococcus furiosus, UniProt O74036, D220A/D267M/E219S/H199N/H264F/I169M/I200V/I222M/K198D/K221M/K223V/K263R/L213Q/L225S/L274E/Q216Y/V168A/V202Y/V215L/V232Y/W170Y/Y201A/Y275F); assay: Competition assay with BRC4^fl in nanoliter droplets; format: binding
T1 construct: made in house; host or cells: E. coli BL21(DE3) pUBS520, pBAT plasmid

[1] = Retention of BRC4fl in droplets (leakage into oil phase); format: physicochemical; settings: HFE 7500 with 1% w/v AZ2C fluorosurfactant, approx. 1 minute to detection point
Method: AZ2C fluoroLsurfactant (made inLhouse according to a previously published method).4 The time to reach the detection point (approx. 1 minute) was sufficient for significant leakage of BRC4fl from the droplet. Addition of additives such as BSA has been found effective in increasing the effective solubility of reagents.5 BSA was titrated using the same droplet titration technique up to 1.2%. The fluorescence intensity measured at the detection point was […]
increase retention of the fluorophore in the droplet. Anisotropy reached a steadyLstate value when BSA was present at concentrations above 0.2%. Although the linear increase of […]
presence of BSA concentrations above 1% made droplet formation more difficult, because of the increased viscosity of the aqueous phase and the formation of BSA vesicles. Therefore 1% BSA was chosen as a compromise between these effects and all experiments were […]
Figure S4. Influence of BSA concentration on the retention of BRC4fl within the droplet. (A) Intensity is linearly increasing with BSA concentration. (B) Fluorescence anisotropy converges towards a steadyLstate value above a threshold concentration of BSA

RAD51 = settings: 30–35 amino acid peptide corresponding to BRC repeat 4; cited from earlier work
From the text: We explore the potential of single droplet anisotropy measurements for the study of structure–activity relationships for protein–protein interactions in nanoliter volumes. Specifically, we address the interactions of the BRC4 peptide, a reductionist model of the recombination mediator BRCA2, with mutants of an archaeal surrogate of the recombinase RAD51.[10] […] Inhibit ...

CC[C@H](C)[C@H](NC(=O)[C@H](CCCCN)NC(=O)[C@@H](NC(=O)[C@H](CCCCN)NC(=O)[C@H](CCCCN)NC(=O)CNC(=O)[C@H](CO)NC(=O)[C@H](C)NC(=O)[C@@H](NC(=O)[C@H](Cc1c[nH]cn1)NC(=O)[C@H](Cc1ccccc1)NC(=O)CNC(=O)[C@H](CC(C)C)NC(=O)[C@H](CC(C)C)NC(=O)[C@@H](NC(=O)[C@@H]1CCCN1C(=O)[C@H](CCC(=O)O)NC(=O)[C@H](CCCCN)NC(=O)[C@H](CSC1CC(=O)N(c2ccc3c(c2)C(=O)OC32c3ccc(O)cc3Oc3cc(O)ccc32)C1=O)NC(C)=O)[C@@H](C)O)[C@@H](C)O)C(C)C)C(=O)N[C@@H](C)C(=O)N[C@@H](CCCCN)C(=O)N[C@@H](CCC(=O)O)C(=O)N[C@@H](CO)C(=O)N[C@@H](CC(C)C)C(=O)N[C@@H](CC(=O)O)C(=O)N[C@@H](CCCCN)C(=O)N[C@H](C(=O)N[C@@H](CCCCN)C(=O)N[C@@H](CC(N)=O)C(=O)N[C@@H](CC(C)C)C(=O)N[C@@H](Cc1ccccc1)C(=O)N[C@@H](CC(=O)O)C(=O)N[C@@H](CCC(=O)O)C(=O)N[C@@H](CCCCN)C(=O)N[C@@H](CCC(=O)O)C(=O)N[C@@H](CCC(N)=O)C(N)=O)C(C)C (stereo partly drawn) [BRC4]
Kd (HumRadA18): 45 nM
leakage from droplet [1]: high propensity for leakage
RAD51 activity (RAD51): block RAD51 activity
